Source: US20160113931A1, “Method of treating and/or preventing neurodegenerative diseases” (University of Macau, priority 2014, published 2016)
Entries after “also recorded” stand apart in the source; their conditions may differ.

Experiments:
[1] = system: zebrafish; assay: MPTP-induced dopaminergic neuron loss in zebrafish (TH whole-mount immunostaining); type: in vivo, Danio rerio; conditions: for TH+ density, percentage of the control group: 360 μM MPTP 48 h, 1 dpf zebrafish
Protocol: Zebrafish at 1 dpf were exposed to BHDPC (3, 10, 30 μM) with or without MPTP for 48 h. Then fish were fixed for whole mount immunostaining. The morphology change of dopaminergic neurons in zebrafish brain was indicated by immunostaining with antibody against tyrosine hydroxylase (TH). Statistical analysis of TH density was accessed in each 10 fish/group. […] Zebrafish at 1 dpf were exposed to different concentrations of BHDPC with or without MPTP for 48 h. Then fish were fixed for whole mount immunostaining.
The AB strain of wild type zebrafish (Danio rerio) was maintained as described in the Zebrafish Handbook. Zebrafish were staged by days post fertilization […]. For breeding, groups of male and female (3:2) adult zebrafish were placed in 10-L plastic aquarium equipped with spawning nets in the evening. In the following morning, eggs were collected from the breeding group tanks. Normally developed fertilized eggs were selected under a stereomicroscope for further studies. The MPTP manipulation was performed with appropriate safety precautions and all MPTP-containing water was bleached.
Whole-mount immunostaining in zebrafish was performed as previously described. 3 dpf Zebrafish larvae were fixed with 4% paraformaldehyde in PBS for 30 min, […] (TH) staining was performed as previously described. Briefly, zebrafish were fixed in 4% paraformaldehyde in PBS for 5 h. Fixed samples were blocked (2% lamb serum and 0.1% BSA in PBST) for 1 h at room temperature. A mouse monoclonal anti-tyrosine hydroxylase (TH) antibody (Millipore, Billerica, MD, USA) was used as the primary antibody and incubated with samples overnight at 4° C. On the next day, samples were washed six times with PBST (each wash lasted 30 min), followed by incubation with Alexa Fluor® 488 goat anti-mouse antibodies. After immunostaining, zebrafish were mounted with 3.5% methylcellulose and photographed. Semi-quantification of the area of TH^+ cells was assessed by an investigator, unaware of the drug treatment, using Image-J software. Results are expressed as percentage of area of TH^+ cells in untreated normal control groups.
In this example, the in vivo animal model was used to determine the neuroprotective effect of BHDPC. Anti-tyrosine hydroxylase (TH) whole mount immunostaining was used to determine dopaminergic neuronal populations in zebrafish larvae (FIG. 15A). TH activity is the key enzyme responsible for dopamine biosynthesis in the CNS. […] The dopamine reuptake inhibitor nomifensine (Nom), which protected against MPTP-induced neurotoxicity in vivo was used as a positive control. The treatment of larvae with 30 μM of nomifensine, a positive control drug attenuated MPTP-induced neurotoxicity, with TH^+ density […] by 30% compared to the MPTP group.
L-deprenyl, which is a substituted phenethylamine used in treatment of early Parkinson's disease, was used as a positive control.

[2] = system: SH-SY5Y cells; assay: MPP+-induced cytotoxicity in SH-SY5Y cells (MTT assay); type: cell-based, human; conditions: 30 μM, 2 h pre-treatment, 1 mM MPP+ 24 h
Protocol: Cells were pre-treated with BHDPC (3, 10 and 30 μM) for 2 h and then incubated with or without 1 mM MPP^+ for further 24 h. Cell viability was measured by the MTT assay.
The human neuroblastoma SH-SY5Y cells were purchased from America Tissue Type Collection. The cells were maintained in DMEM medium supplemented with 10% fetal bovine serum and penicillin/streptomycin (100 U/mL; 100 μg/mL) in a 37° C., 5% CO2 incubator. All experiments were carried out 48 hours after the cells were seeded.
(§1) The percentage of surviving cells was estimated by determining the activity of mitochondrial dehydrogenases with 3(4,5-dimethylthiazol-2-yl)-2,5-diphenyltetrazolium bromide (MTT) assay. After drug treatment, cells were incubated at 37° C. for 4 h in 0.5 mg/mL MTT solution. The medium was then removed, and 100 μL of DMSO was added to each well to dissolve the violet formazan crystals. The absorbance of the samples was measured at a wavelength of 570 nm with 655 nm as a reference wavelength. All values were normalized to the control groups.
To test the neuroprotective effects of BHDPC, SH-SY5Y cells were pre-treated with gradually increasing concentrations of BHDPC for 2 h and then treated with 1 mM MPP^+ for 24 hours. Cell viability was measured using the MTT assay.

[3] = system: cerebellar granule neurons (CGNs); assay: MPP+-induced neurotoxicity in primary cerebellar granule neurons (MTT assay); type: cell-based, mice; conditions: 10 and 30 μM, 2 h pre-treatment, 40 μM MPP+ 24 h
Protocol: Cerebellar tissue slice were treated with 30 μM BHDPC with or without MPP^+ for 72 h and then were stained with PI.
as §1
Rat CGNs were prepared from 8-day-old Sprague-Dawley rats (The Animal Care Facility, The Hong Kong Polytechnic University) as described in our previous publication. Briefly, neurons were seeded at a density of 2.7×10^5 cells/ml in basal modified Eagle's medium (Invitrogen) containing 10% fetal bovine serum, 25 mM KCl, 2 mM glutamine, and penicillin (100 units/ml)/streptomycin (100 μg/ml). […]
To further confirm the effect of BHDPC on primary neurons, mice cerebellar granule neurons were treated with BHDPC at the indicated concentrations for 2 hours and then exposed to 40 μM MPP^+. Cell viability was measured by the MTT assay at 24 hours after the MPP^+ challenge.

[4] = OPC proliferation (MTT assay); type: cell-based, rat; conditions: rat, primary oligodendroglial progenitor cells (OPCs), 100 μM, read-out: OPC viability compared with the control group (cytotoxicity)
Protocol: FIGS. 10A, 10B and 10C show the effects of BHDPC in oligodendroglial progenitor cells (OPCs) proliferation. OPCs were incubated with the drugs at indicated concentrations in proliferation medium for 2 days. (FIG. 10A) The cell viability was measured by MTT assay.
as §1
Purified OPC cultures were prepared as described. In brief, primary rat mixed glial cell cultures were isolated from whole brains of postnatal day (P) 2 rats, dissociated into single cells, and cultured into poly-D-lysine (PDL) coated T75 tissue culture flasks. Plating medium consisted of Dulbecco's modified Eagle's medium (DMEM, Invitrogen, Carlsbad, Calif.) supplemented with 10% fetal bovine serum (FBS; Invitrogen, Carlsbad, Calif.), […]. Tissue cultures were maintained at 37° C. in a humidified 5% CO2 incubator, and medium was exchanged every 3 days. Once confluent (after 10-15 days), microglia were separated by mechanical shaking of flasks on a rotary shaker for […] at 250 rpm and removed. After addition of fresh medium, the remaining cells were allowed to recover overnight before repeating the mechanical shaking for an additional 16 h at 200 rpm to isolate OPCs. To ensure purity of OPC cultures, the isolated cells were transferred to a tissue culture dish, from which the loosely attached OPCs were detached by gentle shaking after 60 min, leaving behind attached microglia and astrocytes. OPCs were plated onto PDL coated 96 well plates using an automated dispenser and allowed to adhere to the plates over the next 1-2 days.
To test the effect of BHDPC on primary OPC culture, OPCs were treated with BHDPC for 48 h and the cell viability was determined using MTT assay. […] The proliferation activity of BHDPC was also confirmed by the EdU incorporative assay.

Structure (SMILES): COc1cc(C2C(C(=O)OCc3ccccc3)=C(C)Nc3nnnn32)ccc1O (centres unmarked) [BHDPC, benzyl 7-(4-hydroxy-3-methoxyphenyl)-5-methyl-4,7-dihydrotetrazolo[1,5-a]pyrimidine-6-carboxylate]
- TH+ density, percentage of the control group ([1]; 3 μM): 66%
- TH+ density, percentage of the control group ([1]; 10 μM): 74%
- TH+ density, percentage of the control group ([1]; 30 μM): 90%
- MPTP-induced TH+ density decrease (FIG. 15B) ([1]; 3 and 10 μM, MPTP 48 h, dose-dependent): rescue dramatically; also recorded: protected against MPTP-induced DA neuron loss
- toxicity in the vital organs ([1]; BHDPC treated zebrafish compared to control groups): No toxicity was observed
- MPP+-induced neuronal death (cell viability, MTT) [2]: prevented MPP^+-induced dopaminergic neuronal death
- MPP+-induced neuronal death (cell viability, MTT) [3]: reduced MPP^+-induced dopaminergic neuronal death; also recorded: prevented MPP^+-induced neuronal death
- viability at 48 h, 100 µM [4]: 65%
